According to paper PMC5972519 (Journal of pharmaceutical and biomedical analysis, 2016):

Experiments:
[1] = Plasma pharmacokinetics of; type: in vivo, Wistar rat; conditions: for concentration at 30 min / concentration at 40 min: male, Wistar, rat, ip; for concentration at 30 min / concentration at 40 min / t1/2 / Cmax / Tmax: plasma; for t1/2 Ratio (A/C): Acute Arm t1/2 / Chronic Arm t1/2 (fold reduction by 14-day dosing); for Plasma concentration Ratio (C/A): Chronic Arm / Acute Arm; for Plasma concentration at 30 min after ip administration: Acute Arm, single ip 40 mg/kg (R,S)-Ket
[2] = Partitioning between whole blood and plasma; type: in vitro ADME; conditions: mouse whole blood, spiked 10, 1 and 0.1 μM, 30 min at 37°C
[3] = Acute: single ip 40 mg/kg (R,S)-Ket
[4] = Acute: single ip 40 mg/kg (R,S)-Ket, 40 mg/kg
[5] = Sub-chronic: Day 14 of ip 40 mg/kg (R,S)-Ket once per day for 14 days

NC1(c2ccccc2Cl)CCC=CC1=O (racemic) [(R,S)-DHNK, (R,S)-dehydronorketamie]
Plasma concentration at any sampling time ([1]; after ip 40 mg/kg (R,S)-Ket, both arms): ≤ 10 ng/mL | Share of compound found in the plasma fraction after incubation with whole blood [2]: < 20%

CNC1(c2ccccc2Cl)CCCCC1=O (racemic) [(R,S)-Ket, (R,S)-Ketamine, reference compound]
Plasma concentration between 5 min and 60 min post-administration [1, 3]: > 1,000 ng/ml | concentration at 30 min ([1]; 40 mg/kg): 2780 ng/mL | concentration at 40 min ([1]; 40 mg/kg): 2600 ng/mL | Share of compound found in the plasma fraction after incubation with whole blood [2]: > 90%

NC1(c2ccccc2Cl)CCCCC1=O (racemic) [(R,S)-norKet, (R,S)-norketamine]
Fold reduction of relative plasma concentration by subchronic dosing ([1]; 30 min post dosing, subchronic versus acute): 1.6 fold | t1/2 Ratio (A/C) [1]: 1.4 | Plasma concentration between 5 min and 60 min post-administration [1, 3]: > 1,000 ng/ml | Plasma concentration Ratio (C/A) ([1]; 30 min post dosing): 0.62 | concentration at 30 min ([1]; 40 mg/kg): 2130 ng/mL | concentration at 40 min ([1]; 40 mg/kg): 1340 ng/mL | Share of compound found in the plasma fraction after incubation with whole blood [2]: > 90%

NC1(c2ccccc2Cl)CC(O)CCC1=O [(2S,4R;2R,4S)-HNK, (2S,4R;2R,4S)-hydroxynorketamine]
Plasma concentration at 30 min after ip administration [1]: 218 ng/mL | Plasma concentration between 5 min and 60 min post-administration [1, 3]: > 50 ng/mL | Plasma concentration at 10 min post-dosing [1, 4]: 257 ± 195 ng/mL | Plasma concentration Ratio (C/A) ([1]; 30 min post dosing): 1.7 | Plasma concentration Ratio (C/A) ([1]; 30 min post dosing, listed as (2S,4R,2R,4S)-HNK): 1.73 | t1/2 [1, 5]: 5.0 h

NC1(c2ccccc2Cl)CC(O)CCC1=O [(2S,4S;2R,4R)-HNK]
Plasma concentration between 5 min and 60 min post-administration [1, 3]: > 50 ng/mL | Plasma concentration at 10 min post-dosing [1, 4]: 196 ± 132 ng/mL

NC1(c2ccccc2Cl)CCC(O)CC1=O [(2S,5S;2R,5R)-HNK]
Plasma concentration at 10 min post-dosing [1, 3]: 181 ± 141 ng/mL | Plasma concentration between 5 min and 60 min post-administration [1, 3]: > 50 ng/mL

NC1(c2ccccc2Cl)CCCC(O)C1=O [(2S,6R;2R,6S)-HNK, (2S,6R;2R,6S)-hydroxynorketamine]
Plasma concentration at 30 min after ip administration [1]: 172 ng/mL | Plasma concentration at 10 min post-dosing [1, 3]: 252 ± 81 ng/mL | Plasma concentration between 5 min and 60 min post-administration [1, 3]: > 50 ng/mL | Plasma concentration Ratio (C/A) ([1]; 30 min post dosing): 4.5 | Plasma concentration Ratio (C/A) ([1]; 30 min post dosing, listed as (2S,6R,2R,6S)-HNK): 4.53 | Cmax [1, 5]: 2101 ng/mL | t1/2 [1, 5]: 1.3 h

N[C@@]1(c2ccccc2Cl)CCC[C@@H](O)C1=O [(2S,6S;2R,6R)-HNK, (2S,6S;2R,6R)-hydroxynorketamine]
t1/2 Ratio (A/C) [1]: 1.2 | Plasma concentration at 30 min after ip administration [1]: 4327 ng/mL | Plasma concentration between 5 min and 60 min post-administration [1, 3]: > 1,000 ng/ml | Cmax [1, 3]: 4641 ± 2020 ng/mL | Tmax [1, 3]: 0.61 ± 0.35 h | t1/2 ([1]; Acute: single ip 40 mg/kg (R,S)-Ket, male Wistar rats): 13.2 ± 3.7 h | Plasma concentration Ratio (C/A) ([1]; 30 min post dosing): 1.4 | Plasma concentration Ratio (C/A) ([1]; 30 min post dosing, listed as (2S,6S,2R,6R)-HNK): 1.42 | Plasma concentration at 72 hr post-administration ([1]; Sub-chronic, Day 14 dose): 15 ± 7 ng/mL | Cmax [1, 5]: 6491 ± 3008 ng/mL | Tmax [1, 5]: 0.78 ± 0.19 h | t1/2 [1, 5]: 11.1 ± 1.8 h
